Experiments:
[1] = system: CYP2B (P450 Isozyme 2B); assay: Lauric acid 11-hydroxylase activity in human microsome preparations; settings: human, human microsome preparations, probe lauric acid
[2] = target: CYP2C9 (P450 Isozyme 2C9) (Homo sapiens, UniProt P11712); assay: Tolbutamide hydroxylase activity in human microsome preparations; settings: microsomes
[3] = target: CYP2C19 (P450 Isozyme 2C19) (Homo sapiens, UniProt P33261); assay: Mephenytoin hydroxylase activity in human microsome preparations; settings: human, human microsome preparations, probe mephenytoin
CYP2C19 (P450 Isozyme 2C19), sequence (P33261 whole entry): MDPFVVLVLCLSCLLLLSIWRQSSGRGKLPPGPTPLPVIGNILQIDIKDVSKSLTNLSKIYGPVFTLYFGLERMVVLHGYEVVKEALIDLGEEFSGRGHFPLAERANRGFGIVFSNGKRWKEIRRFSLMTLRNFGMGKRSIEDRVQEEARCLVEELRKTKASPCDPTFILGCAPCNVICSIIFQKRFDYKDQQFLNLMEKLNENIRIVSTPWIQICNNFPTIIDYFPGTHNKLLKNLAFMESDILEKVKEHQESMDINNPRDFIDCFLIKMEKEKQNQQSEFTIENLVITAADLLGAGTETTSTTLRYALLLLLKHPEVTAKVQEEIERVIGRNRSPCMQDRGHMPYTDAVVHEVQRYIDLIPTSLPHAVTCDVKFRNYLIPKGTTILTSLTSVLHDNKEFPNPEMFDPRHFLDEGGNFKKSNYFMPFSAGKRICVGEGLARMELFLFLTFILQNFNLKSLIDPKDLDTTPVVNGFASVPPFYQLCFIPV

[4] = target: CYP2D6 (P450 Isozyme 2D6) (Homo sapiens, UniProt P10635); assay: Bufuralol hydroxylase activity in human microsome preparations; settings: human
CYP2D6 (P450 Isozyme 2D6), sequence (P10635 whole entry): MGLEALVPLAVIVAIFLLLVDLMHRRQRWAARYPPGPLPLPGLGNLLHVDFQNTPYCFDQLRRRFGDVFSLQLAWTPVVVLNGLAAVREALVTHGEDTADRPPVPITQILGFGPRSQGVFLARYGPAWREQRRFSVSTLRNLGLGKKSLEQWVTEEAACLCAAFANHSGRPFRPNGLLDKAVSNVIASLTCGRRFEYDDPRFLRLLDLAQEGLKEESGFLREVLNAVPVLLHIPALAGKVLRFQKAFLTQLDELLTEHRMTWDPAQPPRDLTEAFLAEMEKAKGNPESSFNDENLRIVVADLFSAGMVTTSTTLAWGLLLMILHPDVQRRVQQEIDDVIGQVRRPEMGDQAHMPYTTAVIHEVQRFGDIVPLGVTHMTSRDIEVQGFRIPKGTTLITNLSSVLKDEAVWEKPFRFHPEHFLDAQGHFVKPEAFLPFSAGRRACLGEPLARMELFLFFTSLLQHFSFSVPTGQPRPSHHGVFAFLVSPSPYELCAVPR

[5] = system: rats; settings: 10 mg/kg, given 10 minutes following methylphenidate, within 15 to 25 minutes; cited from earlier work
[6] = system: mouse liver; assay: Toxicity in the mouse liver; type: in vivo; settings: compared with racemic methylphenidate
Source text: The invention is thus of particular utility in that proportion of the population in which the relevant enzymes have reduced efficiency, or that are receiving the cross-reacting drugs, e.g SSRIs, in therapy of, say, anxiety or depression.

[7] = system: P450 Isozyme 2B; assay: Lauric acid 11-hydroxylase activity in human microsome preparations; settings: test substance at 100 μM, human microsomes
[8] = target: P450 Isozyme 2C19 (Homo sapiens, UniProt P33261); assay: Mephenytoin hydroxylase activity in human microsome preparations; settings: test substance at 100 μM, human microsomes
P450 Isozyme 2C19, sequence (P33261 whole entry): as the sequence (P33261 whole entry) above

[9] = target: P450 Isozyme 2D6 (Homo sapiens, UniProt P10635); assay: Bufuralol hydroxylase activity in human microsome preparations; settings: test substance at 100 μM, human microsomes
P450 Isozyme 2D6, sequence (P10635 whole entry): as the sequence (P10635 whole entry) above

CYP2C9 (P450 Isozyme 2C9), sequence (P11712 whole entry): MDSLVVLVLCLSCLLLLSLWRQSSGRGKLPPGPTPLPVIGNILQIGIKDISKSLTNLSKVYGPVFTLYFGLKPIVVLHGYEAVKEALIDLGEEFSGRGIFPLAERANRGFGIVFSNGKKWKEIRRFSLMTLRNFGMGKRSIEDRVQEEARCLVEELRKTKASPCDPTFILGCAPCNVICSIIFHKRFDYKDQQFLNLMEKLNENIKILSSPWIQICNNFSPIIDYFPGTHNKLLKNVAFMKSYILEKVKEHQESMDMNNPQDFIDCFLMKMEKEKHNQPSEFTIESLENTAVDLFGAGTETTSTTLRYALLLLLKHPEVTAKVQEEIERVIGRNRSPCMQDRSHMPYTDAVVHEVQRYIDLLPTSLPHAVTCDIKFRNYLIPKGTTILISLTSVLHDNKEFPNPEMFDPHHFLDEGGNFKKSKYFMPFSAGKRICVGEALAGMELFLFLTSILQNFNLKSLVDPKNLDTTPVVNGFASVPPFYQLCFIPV

## COC(=O)C(c1ccccc1)C1CCCCN1 (racemic) [Racemic Methylphenidate, methylphenidate]
[1]
  inhibition at 100 µM: < 15%
[2]
  inhibition at 100 µM: 19%
[3]
  inhibition at 100 µM: 44%
[4]; microsomes
  inhibition at 100 µM: 65%

## NCC(CC(=O)O)c1ccc(Cl)cc1 (stereo not shown) [Baclofen]
[5]
  block of methylphenidate-enhanced activity and stereotypics: uniform block

## C=C[C@H]1C[N@@]2CC[C@H]1C[C@@H]2[C@@H](O)c1ccnc2ccc(OC)cc12 [Quinidine]
[4]; human microsome preparations, probe bufuralol
  inhibition at 10 µM: > 90%

## COC(=O)[C@H](c1ccccc1)[C@H]1CCCCN1 [dtmp, d-threo-methylphenidate]
[6]
  toxicity in the mouse liver: less toxicity in the mouse liver than racemic methylphenidate
[7]
  % Inhibition of Enzyme Activity (Lauric acid 11-hydroxylase, 2B): <20%
[8]
  % Inhibition of Enzyme Activity (Mephenytoin hydroxylase, 2C19): 31%
[9]
  % Inhibition of Enzyme Activity (Bufuralol hydroxylase, 2D6): 64%

## COC(=O)[C@@H](c1ccccc1)[C@@H]1CCCCN1 [ltmp]
[7]
  % Inhibition of Enzyme Activity (Lauric acid 11-hydroxylase, 2B): <20%
[8]
  % Inhibition of Enzyme Activity (Mephenytoin hydroxylase, 2C19): 33%
[9]
  % Inhibition of Enzyme Activity (Bufuralol hydroxylase, 2D6): 41%

— patent US7267949B2, “Composition comprising methylphenidate and another drug” (Celltech Pharma Europe Limited, priority 1995, dated 2007)
